{
  "source": "patent US8921403B2",
  "about": "“Combinations of imazalil and hydroxypyridones” (Janssen Pharmaceutica, NV, priority 2007, dated 2014)",
  "tested_on": "Staphylococcus aureus (g+) LMG 8064",
  "test": "poison plate assay (bacteria)",
  "format": "cell-based",
  "conditions": "LMG8064, 120 h, ppm total active ingredient, Tryptose Agar, 27° C., 70% relative humidity, growth evaluated after five days, ratio % (I) + % (II-a), read-out: MIC-values (minimum inhibitory concentration) in ppm",
  "from_the_text": "When the Synergy Index is greater than 1.0, antagonism is indicated. When the SI is equal to 1.0, additivity is indicated.",
  "data": [
    {"compound": "C=CCOC(Cn1ccnc1)c1ccc(Cl)cc1Cl", "note": "(stereo not shown) [100 + 0]", "values": [
      {"measurement": "MIC", "result": 25, "unit": "µg/mL"}
    ]}
  ]
}
